Results as given in US9353094B2, “Substituted quinoxalines as kinase inhibitors” (BOARD OF REGENTS OF THE UNIVERSITY OF NEBRASKA, priority 2010, dated 2016).

Tests used:
[1] = test system: human breast MDA-MB-231 tumor cell line; test: Cell growth inhibition assay (alamar blue); type: cell-based; settings: MDA-MB-231, 20 μM, 72 h
Description: (§1) The compounds were screened in a growth inhibition assay at 20 μM over a 72 h period in a panel of cancer cell lines (lung-A549; pancreatic-Aspc1; colon-HT29; breast-MDAMB231; prostate-PC3; ovarian-SKOV3 and bone-U2OS) and the results are summarized in Table 2. […] This size effect was also observed with the urea compounds from the secondary amine (6j vs. 6l and 6k vs. 6m).
(§2) Cell Growth Inhibition Assay. Human lung A549, human pancreatic AsPC1, human colorectal HT-29, human breast MDA-MB-231, human prostate PC3, human ovarian SKOV3, and human osteosarcoma U2OS tumor cell lines were cultured in basal media containing 10% FBS and maintained in a 37° C. incubator with 5% CO2. All compounds were screened in 96 well microtiter plate format. In general, each cell line was plated at optimal assay density in 95 μl of propagation media in 96 well plates and incubated overnight. The next day, a standard alamar blue assay was performed (see below) on representative wells of each cell line for a Tz calculation. Subsequently, cells were treated in duplicate with a 5 μl volume of either vehicle only, positive controls etoposide and taxol, or test compounds at 20 μM (highest soluble compound concentration). The treated cells were incubated for 72 h and then assayed for growth by alamar blue assay. Briefly, 10 μl of reagent was added to each well and the plates returned to 37° C. After 3 h, fluorescence at 544ex/590em was measured using a SpectraMax M5 (Molecular Devices) plate reader. Growth is represented as a percentage of the control cells that were treated with vehicle only and % growth inhibition was determined using the NCI algorithm: Tz=number of untreated cells at zero time, C=Number of control cells at 72 h time, and T=number of compound treated cells at 72 h time; 100*([T−Tz]/[C−Tz]).

[2] = test system: human colorectal HT-29 tumor cell line; test: Cell growth inhibition assay (alamar blue); type: cell-based; settings: HT29, 20 μM, 72 h
Description: as §1, §2

[3] = test system: human lung A549 tumor cell line; test: Cell growth inhibition assay (alamar blue); type: cell-based; settings: A549, 20 μM, 72 h
Description: as §1, §2

[4] = test system: human osteosarcoma U2OS tumor cell line; test: Cell growth inhibition assay (alamar blue); type: cell-based; settings: 72 h
Description: as §1, §2

[5] = test system: human ovarian SKOV3 tumor cell line; test: Cell growth inhibition assay (alamar blue); type: cell-based; settings: SKOV3, 20 μM, 72 h
Description: as §1, §2

[6] = test system: human pancreatic AsPC1 tumor cell line; test: Cell growth inhibition assay (alamar blue); type: cell-based; settings: AsPC1, 20 μM, 72 h
Description: as §1, §2

[7] = test system: human prostate PC3 tumor cell line; test: Cell growth inhibition assay (alamar blue); type: cell-based; settings: PC3, 20 μM, 72 h
Description: as §1, §2

[8] = test system: panel of cancer cell lines; test: Growth inhibition assay, whole panel; type: cell-based, human; settings: 20 μM, 72 h
Description: as §1, §2

Compound | % Growth inhibition at 20 μM [1] | % Growth inhibition at 20 μM [2] | % Growth inhibition at 20 μM [3] | % Growth inhibition at 20 μM [4] | % Growth inhibition at 20 μM [5] | % Growth inhibition at 20 μM [6] | % Growth inhibition at 20 μM [7] | growth inhibition of the various cancer cell lines (in words) [8]
O=C(Nc1ccc2nc(-c3ccco3)c(-c3ccco3)nc2c1)N1CCC(Cc2ccccc2)CC1 [6k] | 90.8 ± 4.5% | 55.2 ± 4.1% | 93.1 ± 7.8% | 80.3 ± 2.4% | 47.6 ± 2.5% | >100% | >100% | active
O=C(Nc1ccc(Cl)cc1)Nc1ccc2nc(-c3ccco3)c(-c3ccco3)nc2c1 [7b] | 92.5 ± 6.6% | 86.3 ± 7.7% | 99.2 ± 5.2% | 87.4 ± 1.1% | 55.8 ± 24.1% | 81.1 ± 2.0% | 86.4 ± 1.1% | –
O=[N+]([O-])c1ccc(NC(=S)Nc2ccc3nc(-c4ccccc4)c(-c4ccccc4)nc3c2)cc1 [6f] | 72.6 ± 0.7% | 81.2 ± 0.7% | 16.6 ± 11.2% | 76.1 ± 0.4% | 55.8 ± 30.7% | 55.5 ± 25.4% | 81.0 ± 8.5% | –
Cc1nc2ccc(NC(=O)N3CCCC3)cc2nc1C [6g] | Inactive | Inactive | Inactive | Inactive | Inactive | Inactive | Inactive | –
S=C(Nc1ccccc1)Nc1ccc2nc(-c3cccs3)c(-c3cccs3)nc2c1 [6b] | Inactive | Inactive | Inactive | Inactive | Inactive | Inactive | Inactive | –
Cc1ccc(S(=O)(=O)Nc2ccc3nc(-c4ccccc4)c(-c4ccccc4)nc3c2)cc1 [5l] | Inactive | Inactive | Inactive | Inactive | Inactive | Inactive | Inactive | –
CC(=O)Nc1ccc2nc(-c3ccco3)c(-c3ccco3)nc2c1 [5b] | 20.3 ± 5.9% | 7.6 ± 5.1% | 57.8 ± 7.0% | Inactive | 9.0 ± 3.4% | Inactive | 57.7 ± 9.4% | inhibited growth
O=C(Nc1ccccc1)Nc1ccc2nc(-c3cccs3)c(-c3cccs3)nc2c1 [5g] | Inactive | Inactive | Inactive | Inactive | Inactive | Inactive | Inactive | –
Cc1ccc(S(=O)(=O)N(c2ccc3nc(-c4ccco4)c(-c4ccco4)nc3c2)S(=O)(=O)c2ccc(C)cc2)cc1 [5j] | Inactive | Inactive | Inactive | Inactive | Inactive | Inactive | Inactive | –
S=C(Nc1ccccc1)Nc1ccc2nc(-c3ccco3)c(-c3ccco3)nc2c1 [6a] | 19.1 ± 12.5% | 26.1 ± 15.0% | 18.0 ± 0.1% | 21.4 ± 8.4% | Inactive | Inactive | 56.8 ± 1.4% | active
Cc1nc2ccc(NC(=O)Nc3ccccc3)cc2nc1C [5e] | Inactive | Inactive | Inactive | Inactive | Inactive | Inactive | Inactive | –
CC(=O)Nc1ccc2nc(C)c(C)nc2c1 [5a] | 25.7 ± 5.1% | 31.7 ± 2.8% | 23.4 ± 3.3% | 31.4 ± 3.6% | 4.0 ± 3.6% | 26.2 ± 2.8% | 21.8 ± 15.1% | inhibited growth
Cc1ccc(S(=O)(=O)N(c2ccc3nc(-c4cccs4)c(-c4cccs4)nc3c2)S(=O)(=O)c2ccc(C)cc2)cc1 [5k] | Inactive | Inactive | Inactive | Inactive | Inactive | Inactive | Inactive | –
O=C(Nc1ccc2nc(-c3ccco3)c(-c3ccco3)nc2c1)N1CCOCC1 [6m] | 10.9 ± 5.0% | 19.4 ± 3.6% | 39.7 ± 12.8% | Inactive | Inactive | Inactive | 48.9 ± 7.5% | active
O=[N+]([O-])c1ccc(NC(=S)Nc2ccc3nc(-c4ccco4)c(-c4ccco4)nc3c2)cc1 [6d] | 9.0 ± 4.7% | 42.0 ± 1.9% | 19.2 ± 8.9% | 32.2 ± 0.1% | Inactive | Inactive | 43.4 ± 9.3% | active
O=C(Nc1ccc2nc(-c3ccco3)c(-c3ccco3)nc2c1)N1CCCC1 [6h] | 18.2 ± 7.0% | 16.7 ± 3.7% | 23.3 ± 2.9% | 46.5 ± 4.4% | 16.9 ± 4.9% | 11.6 ± 4.2% | 53.1 ± 9.9% | active
O=C(Nc1ccccc1)Nc1ccc2nc(-c3ccco3)c(-c3ccco3)nc2c1 [5f] | 31.3 ± 10.7% | 52.1 ± 11.6% | 54.6 ± 2.6% | 59.6 ± 1.6% | 24.7 ± 1.1% | 9.6 ± 6.6% | 70.6 ± 1.3% | inhibited growth
